Laboratory results reported in patent US12389905B2, “Synergistic mixture of plant defense inductors” (LIDA PLANT RESEARCH S.L., priority 2018, dated 2025).
Several values for one entry are separate records, joined by “and”; a condition that tells them apart may be missing. Equal entries are not always repeated. Where two headings read alike, the source gives them in different places.

What was measured:
Format in all cases: in vivo
[1] = test system: PR1 (PATHOGENESIS-RELATED PROTEIN 1) gene; test: PR1 gene expression (qPCR) in sprayed Arabidopsis thaliana plants
[2] = test system: PDF1.2 (PLANT DEFENSIN 1.2) gene; test: PDF1.2 gene expression (qPCR) in sprayed Arabidopsis thaliana plants
Method: Wild-type Arabidopsis thaliana Col-0 seeds were grown in pots under a 16 hours day/8 hours night (long day) photoperiod, with a daytime temperature of 22° C., a night temperature of 20° C., and a relative humidity of 65%. Plants were sprayed with each inductor dissolved in water (inductors alone or in combination). 24 and 48 hours after treatment (hours post treatment, hpt), tissue samples were harvested and gene expression analysis of specific defense marker genes was performed, through quantitative PCR technology (qPCR).
The genes involved in plant defense analyzed were one or more of the following 5: • PR1 (PATHOGENESIS-RELATED PROTEIN 1). AGI code: AT2G14610 • PDF1.2 (PLANT DEFENSIN 1.2). AGI code: AT5G44420 • PR2 (PATHOGENESIS-RELATED PROTEIN 2; BETA-1,3-GLUCANASE 2). AGI code: AT3G57260 • PR5 (PATHOGENESIS-RELATED GENE 5). AGI code: AT1G75040 • ICS1 (ISO[…] 1). AGI code: AT1G74710
UBC21 (UBIQUITIN-CONJUGATING ENZYME 21; AGI code: AT5G25760) was the normalization (or housekeeping) gene used.
PR1 (Salicylic acid-signaling pathway marker gene) and PDF1.2 (Jasmonic acid-signaling pathway marker gene) are important marker genes of plant defense system, because they are necessary to plant defense mechanisms activation.
In order to evaluate if there is a synergistic effect between different possible combinations, Limpel/Colby's formula was used. This formula is used to calculated the expected activity of combinations containing two active ingredients, A and B: Expected (E)=A+B−(A×B/100) Wherein, • A=observed gene activation of active component A at the same concentration as used in the mixture • B=observed gene activation of active component B at the same concentration as used in the mixture
When the activity found experimentally (observed) is greater than the value of E, said activity should be considered as being a synergistic effect, and Synergy Factor (F) is >1: Synergy Factor (F)=Observed activity/Expected activity (E)
In the following: • OV: Observed gene activation value • CEV: Colby expected gene activation value with the mixture [CEV=A+B−(A×B/100)] Synergy Factor (F)=OV(A+B)/CEV(A+B) • hpt: hours post treatment.

[3] = test system: Pseudomonas cannbina pv. alisalensis on Chinese cabbage; details: for Percentage of disease control B: in vivo
[4] = test system: Podosphaera xanthii on cucumber; test: Powdery mildew on cucumber, greenhouse disease control
Method: (§1) The experiments were carried out under controlled greenhouse conditions. The effects of temperature, humidity and light conditions in the greenhouse chambers were adjusted according to host plants and pathogens needs.
(§2) The efficacy or disease control value (W) was calculated according to Abbott's formula: W=(1−x/y)×100 wherein • x=percentage of fungal or bacterial infection in treated plants • y=percentage of fungal or bacterial infection in untreated control plants
(§3) An efficacy of 0 means the infection level of the treated plants corresponds to that of the untreated control plants; and efficacy of 100 means that the treated plants are not infected.
(§4) In order to evaluate if there is a synergistic effect between different possible combinations, Limpel/Colby's formula was used.
(§5) Synergy Factor (F)=OV(A+B)/CEV(A+B) 1. Podosphaera xanthii on Cucumber
1.2-leaf stage cucumber plants (cv. Suzunari-suyo), grown in pots under controlled conditions, were treated by spraying of the leaves or by soil drenching with the mixture in question, dispersed in an aqueous solution. Plants were kept in a growth chamber at 25° C. and 80% RH. After 7 days, plants were inoculated and infected with a spore suspension of Podosphaera xanthii, and, 10 days after pathogen inoculation, infection levels were assessed and percentages of disease control and expected values were calculated according to Abbott's and Colby's formulas, respectively.

[5] = test system: Pyricularia oryzae on rice; details: soil drench
[6] = test system: Phakopsora pachyrhizi on soybean; test: Asian rust on soybean, greenhouse disease control; details: B alone 100 ppm, leaf spray
Method: as §1, §2, §3
In order to evaluate if there is a synergistic effect between different possible combinations, Limpel/Colby's formula was used. This formula is used to calculated the expected disease control value of combinations containing two active ingredients, A and B: Expected (E)=A+B−(A×B/100) wherein, • A=observed disease control value of component A, at the same concentration as used in the mixture • B=observed disease control value of component B, at the same concentration as used in the mixture
When the disease control value found experimentally (observed) with the combination is greater than the value of E, said activity should be considered as being a synergistic effect, and Synergy Factor (F) is >1: Synergy Factor (F)=Observed disease control value/Expected disease control value (E)
As above, in the following Tables: • OV: Observed control value • CEV: Colby expected control value with the mixture [CEV=A+B−(A×B/100)] Synergy Factor (F)=OV(A+B)/CEV(A+B) 1. Podosphaera xanthii on Cucumber
1.5-leaf stage soybean plants (cv. Tsurunoko-daizu), grown in pots under controlled conditions, were treated by spraying of the leaves with the mixture in question, dispersed in an aqueous solution. After 7 days, plants were inoculated and infected with a spore suspension of Phakopsora pachyrhizi(1×10^6 uredospores/ml), and they were kept in a growth chamber at 25° C. and 90% RH. 10 days after pathogen inoculation, infection levels were assessed and percentages of disease control and expected values were calculated according to Abbott's and Colby's formulas, respectively.

[7] = test system: Pseudomonas syringae pv. Lachrymans on cucumber; test: Bacterial spot on cucumber, greenhouse disease control; details: spray, 100 ppm
Method: as §1, §2, §3, §4, §5
1.2-leaf stage cucumber plants (cv. Suzunari-suyo), grown in pots under controlled conditions, were treated by spraying of the leaves with the mixture in question, dispersed in an aqueous solution. After 2 days, plants were inoculated and infected with an aqueous suspension of Pseudomonas syringae pv. Lachrymans (1×10^8 cfu/ml), and they were kept in a growth chamber at 25° C. and 90% RH. 7 days after pathogen inoculation, infection levels were assessed and percentages of disease control and expected values were calculated according to Abbott's and Colby's formulas, respectively.

[8] = Combinations with Chitooligosaccharides
[9] = Test 3 (soil drench treatment), 100 ppm
[10] = Test 4 (spray treatment), 100 ppm

For “2-amino-3,5-dichlorobenzoic acid (3,5-dichloroanthranilic acid)”, the “PR1 gene activation OV A or B (single component)” value (from here on “PR1 gene activation OV A or B”) ([1]; 25 ppm, 24 hpt) was 4.61 n-fold, the “PR1 gene activation OV A or B” value ([1]; 25 ppm, 48 hpt) was 4.14 n-fold and the “PDF1.2 gene activation OV A or B (single component)” value (“PDF1.2 gene activation OV A or B” below) ([2]; 25 ppm, 48 hpt) was 5.70 n-fold.

With `O=C(O)c1cc(Cl)nc(Cl)c1` [2,6-Dichloroisonicotinic acid, 2,6-dichloro-isonicotinic acid] the “PR1 gene activation OV A or B” value ([1]; 75 ppm, 24 hpt) was 15.45 n-fold, the “PR1 gene activation OV A or B” value ([1]; 75 ppm, 48 hpt) was 26.64 n-fold and the “Percentage of disease control OV A or B (single component)” value (from here on “Percentage of disease control OV A or B”) ([3]; 300 ppm) was 83%. For the same molecule, the “Percentage of disease control B” value [3] was 83%, the “PDF1.2 gene activation OV A or B” value ([2]; 75 ppm, 24 hpt) was 5.13 n-fold and the “PDF1.2 gene activation OV A or B” value ([2]; 75 ppm, 48 hpt) was 1.68 n-fold.

In the case of `O=C(O)CCCCCCCC(=O)O` [Azelaic acid, azelaic acid], the “PDF1.2 gene activation OV A or B” value ([2]; 200 ppm, 24 hpt) is reported as 331.01 n-fold and the “PDF1.2 gene activation OV A or B” value ([2]; 200 ppm, 48 hpt) is reported as 87.56 n-fold.

`CC(N)CC(=O)O` (stereo not drawn) [Beta-Aminobutyric acid, beta-aminobutyric acid] was tested, and the “Percentage of disease control OV A or B” value ([4]; Test 4 (spray treatment), 300 ppm) was 20%, the “Percentage of disease control B” value ([5]; Test 3, B alone 300 ppm) was 0% and the “Percentage of disease control B” value [6, 8] was 0%. For the same molecule, the “PR1 gene activation OV A or B” value ([1]; 100 ppm, 24 hpt) was 2.53 n-fold, the “PR1 gene activation OV A or B” value ([1]; 100 ppm, 48 hpt) was 8.50 n-fold and the “Percentage of disease control B” value [3] was 46%. The “PDF1.2 gene activation OV A or B” value ([2]; 100 ppm, 48 hpt) was 4.37 n-fold.

`O=S1(=O)N=C(OCc2snc(Cl)c2Cl)c2ccccc21` [Dichlobentiazox] was tested, and the “Percentage of disease control OV A or B” value [4, 9] was 0%, the “Percentage of disease control B” value [6, 8] was 53% and the “Percentage of disease control OV A or B” value ([3]; 100 ppm) was 0%. The “Percentage of disease control B” value [3] was 0%.

For `N#Cc1ccccc1NC(=O)c1snc(Cl)c1Cl` [Isotianil, isotianil], the “Percentage of disease control OV A or B” value [4, 10] was 10%, the “Percentage of disease control B” value ([5]; Test 3, B alone 100 ppm) was 77% and the “Percentage of disease control B” value ([6]; Combinations with Carrageenan) was 20%. For the same molecule, the “Percentage of disease control B” value [6, 8] was 20%, the “Percentage of disease control B” value ([6]; Combinations with Laminarin) was 20% and the “PDF1.2 gene activation OV A or B” value ([2]; 30 ppm, 24 hpt) was 18.22 n-fold. For the same molecule, the “PDF1.2 gene activation OV A or B” value ([2]; 30 ppm, 48 hpt) was 57.21 n-fold.

For `CC/C=C\CC1C(=O)CCC1CC(=O)OC` (centres unmarked) [Methyl jasmonate, methyl jasmonate], the “PR1 gene activation OV A or B” value ([1]; 600 ppm, 24 hpt) was 1.10 n-fold, the “PR1 gene activation OV A or B” value ([1]; 600 ppm, 48 hpt) was 36.36 n-fold and the “PDF1.2 gene activation OV A or B” value ([2]; 600 ppm, 24 hpt) was 6.93 n-fold.

`C=CCOC1=NS(=O)(=O)c2ccccc21` [Probenazole] was tested, and the “Percentage of disease control OV A or B” value [4, 9] was 0%, the “Percentage of disease control B” value ([5]; Test 3, B alone 100 ppm) was 71% and the “Percentage of disease control B” value ([5]; Test 4, B alone 100 ppm) was 71%. The “Percentage of disease control B” value [6, 8] was 7%, the “Percentage of disease control B” value ([6]; Combinations with Laminarin) was 7% and the “PR1 gene activation OV A or B” value ([1]; 100 ppm, 48 hpt) was 102.9 n-fold and 102.90 n-fold. For the same molecule, the “Percentage of disease control OV A or B” value ([7]; Test 2) was 45%, the “Percentage of disease control OV A or B” value ([7]; Test 3) was 45% and the “Percentage of disease control OV A or B” value ([3]; 100 ppm) was 25%. The “Percentage of disease control B” value [3] was 25%.

In the case of `O=C(O)c1ccccc1O` [Salicylic acid, salicylic acid], the “PR1 gene activation OV A or B” value ([1]; 100 ppm, 24 hpt) is reported as 87.08 n-fold, the “PR1 gene activation OV A or B” value ([1]; 100 ppm, 48 hpt) is reported as 58.77 n-fold and the “PDF1.2 gene activation OV A or B” value ([2]; 100 ppm, 24 hpt) is reported as 12.69 n-fold. For the same molecule, the “PDF1.2 gene activation OV A or B” value ([2]; 100 ppm, 48 hpt) was 7.80 n-fold.

`Cc1ccc(NC(=O)c2snnc2C)cc1Cl` [Tiadinil, tiadinil] was tested, and the “Percentage of disease control OV A or B” value [4, 10] was 0%, the “Percentage of disease control B” value ([5]; Test 3, B alone 100 ppm) was 80% and the “PDF1.2 gene activation OV A or B” value ([2]; 45 ppm, 24 hpt) was 189.33 n-fold.

For `Cc1ncc(C[n+]2csc(CCO)c2C)c(N)n1` [Vitamin B1, vitamin B1], the “PR1 gene activation OV A or B” value ([1]; 8000 ppm, 24 hpt) was 8.35 n-fold, the “PDF1.2 gene activation OV A or B” value ([2]; 8000 ppm, 24 hpt) was 231.82 n-fold and the “PDF1.2 gene activation OV A or B” value ([2]; 8000 ppm, 48 hpt) was 319.68 n-fold.

Flagellin was tested, and the “PR1 gene activation OV A or B” value ([1]; 2.3 ppm, 24 hpt) was 2.05 n-fold, the “PR1 gene activation OV A or B” value ([1]; 2.3 ppm, 48 hpt) was 5.89 n-fold and the “PDF1.2 gene activation OV A or B” value ([2]; 2.3 ppm, 24 hpt) was 1.44 n-fold. For the same molecule, the “PDF1.2 gene activation OV A or B” value ([2]; 2.3 ppm, 48 hpt) was 0.94 n-fold.
